US20160106837A1, “COMBINATION OF CD37 ANTIBODIES WITH CHLORAMBUCIL” (BOEHRINGER INGELHEIM INTERNATIONAL GMBH, priority 2013, published 2016)
“Also recorded” adds a separate entry of the source.

What was measured:
[1] = tested on: human follicular lymphoma DOHH2; test: Subcutaneous xenograft model of the human follicular lymphoma DOHH2 in C.B-17 scid mice: tumor growth; format: in vivo
[2] = Body weight / tolerability in DOHH2 tumor-bearing C.B-17 scid mice

O=C(O)CCCc1ccc(N(CCCl)CCCl)cc1 [chlorambucil, 4-[Bis(2-chloroethy)amino]benzenebutaonic acid]
CR (complete tumor regression) ([1]; day 16): 0 x/7 | PR (partial tumor regression) ([1]; day 16): 0 x/7 | tumor regression (in words) ([1]; day 16): tumor regressions were not observed | TGI ([1]; median, day 16, A2 10 mg/kg i.p. d1,5,8,12,15, chlorambucil 6 mg/kg i.p. d2,6): 71% | tumor growth inhibition (in words) ([1]; vs controls): moderate but significant inhibition of tumor growth; also recorded: moderate but significant efficacy | body weight loss during first week ([2]; after one week / first 7 days of the study): 13.4% | Weight change ([2]; median body weight change, day 16): −5.4%
